Laboratory results: patent US11000033B2, “Ketone or oxime compound, and herbicide” (NISSAN CHEMICAL CORPORATION, priority 2014, dated 2021)

Columns and labels:
Type in all cases: in vivo
Monochoria vaginalis = assay: Test Example 1: herbicidal activity, application before weed generation in submerged conditions (symbol C); conditions: application herbicide amount 320 g/ha
Procedure, shortened: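 Weed control was rated three weeks after treatment on a 0–5 scale, from 5% or lower up to 90% or more. Pre-emergence water-surface application of diluted emulsion at a predetermined rate was made on the day of sowing, in flooded (4 cm water) pots containing rice seedlings, kept at 25–30 °C under glass.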

transplanted rice plant = assay: Test Example 1: effect on crop, application before weed generation in submerged conditions (symbol a); conditions: application herbicide amount 320 g/ha
Procedure, shortened: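 Rice at 2.5 leaf stage transplanted into submerged soil (4 cm depth) sown with three weed species; herbicide applied before weed emergence.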

[1] = test system: Echinochloa oryzacola Vasing.; assay: Test Example 2: herbicidal activity, application during weed generation in submerged conditions (symbol A); conditions: Table 23; application herbicide amount 320 g/ha; grade 0-5 by criteria of Test Example 1
Procedure, shortened: (§1)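 Compound was applied as a water-diluted emulsion into the standing water of flooded pots (4 cm) once co-sown weeds reached one to two leaves. Greenhouse temperature was 25° C. to 30° C., soil was alluvial, and each species was rated visually after 3 weeks.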

Scirpus juncoides = assay: Test Example 2: herbicidal activity, application during weed generation in submerged conditions (symbol B); conditions: Table 23; application herbicide amount 320 g/ha; grade 0-5 by criteria of Test Example 1
Procedure, shortened: as §1

[2] = test system: Echinochloa crus-galli var. crus-galli; assay: Test Example 3: herbicidal effect by foliage application, Wagner pot (symbol H); conditions: application herbicide amount 320 g/ha
Procedure, shortened: (§2)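 In a shallow-flooded alluvial soil system held at 25–30 °C, plants including rice grew for 14 days and were then sprayed over the foliage with emulsion diluted to a fixed herbicide amount. Visual rating followed at 3 weeks.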

Leptochloa chinensis = assay: Test Example 3: herbicidal effect by foliage application, Wagner pot (symbol D); conditions: application herbicide amount 320 g/ha
Procedure, shortened: as §2

Cyperus difformis = assay: Test Example 3: herbicidal effect by foliage application, Wagner pot (symbol E); conditions: application herbicide amount 320 g/ha
Procedure, shortened: as §2

Abutilon theophrasti = assay: Test Example 4: herbicidal effect by soil treatment (symbol M); conditions: application herbicide amount 320 g/ha
Procedure, shortened: (§3)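 Seeds were sown in sterilized diluvial soil, covered with about 1.5 cm of soil, and the soil surface was sprayed with a water-diluted emulsion of the compound at a predetermined rate. Plants grew in a greenhouse at 25° C. to 30° C.; effects were scored visually 3 weeks after application.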

Stellaria media = assay: Test Example 4: herbicidal effect by soil treatment (symbol P); conditions: application herbicide amount 320 g/ha
Procedure, shortened: as §3

corn [3] = assay: Test Example 4: effect on crop by soil treatment (symbol c); conditions: application herbicide amount 320 g/ha
Procedure, shortened: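 Crop seed is sown in spots together with several weed species in a box of sterilized diluvial soil. It is covered by about 1.5 cm of soil and kept in a greenhouse held between 25° C. and 30° C.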

soybean [4] = assay: Test Example 4: effect on crop by soil treatment (symbol d); conditions: application herbicide amount 320 g/ha
Procedure, shortened: (§4)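 Sterilized diluvial soil, spot sowing, ~1.5 cm soil cover; greenhouse 25–30° C.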

wheat = assay: Test Example 4: effect on crop by soil treatment (symbol e); conditions: application herbicide amount 320 g/ha
Procedure, shortened: as §4

corn [5] = assay: Test Example 5: effect on crop by foliage application, plastic box (symbol c); conditions: 320 g/ha, 3 weeks after application
Procedure, shortened: (§5)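 Foliage-application test plants come from spot sowing in sterilized diluvial soil under a soil layer of about 1.5 cm, grown at 25° C. to 30° C. in a greenhouse.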

soybean [6] = assay: Test Example 5: effect on crop by foliage application, plastic box (symbol d); conditions: 320 g/ha, 3 weeks after application
Procedure, shortened: as §5

rice plant = assay: Test Example 5: effect on crop by foliage application, plastic box (symbol b); conditions: 320 g/ha, 3 weeks after application
Procedure, shortened: as §5

beet = assay: Test Example 5: effect on crop by foliage application, plastic box (symbol f); conditions: 320 g/ha, 3 weeks after application
Procedure, shortened: as §5

| SMILES | Herbicidal effect grade, C: Monochoria vaginalis (Monochoria vaginalis) | Effect grade on crop, a: transplanted rice plant (transplanted rice plant) | Herbicidal effect grade, A: Echinochloa oryzacola Vasing. [1] | Herbicidal effect grade, B: Scirpus juncoides (Scirpus juncoides) | Herbicidal effect grade, M: Abutilon theophrasti (Abutilon theophrasti) | Herbicidal effect grade, P: Stellaria media (Stellaria media) | Effect on crop grade, c: corn (corn [3]) | Effect on crop grade, d: soybean (soybean [4]) | Effect on crop grade, e: wheat (wheat) | further results |
| --- | --- | --- | --- | --- | --- | --- | --- | --- | --- | --- |
| CON=C(C)C(=O)C1CC(O)=C(c2c(C)cc(C)cc2C)C1=O (centres unmarked) [8-002] | 0 (Herbicidal ratio of 5% or lower (almost no effect)) | 0 (Herbicidal ratio of 5% or lower (almost no effect)) | 0 (Herbicidal ratio of 5% or lower (almost no effect)) | 0 (Herbicidal ratio of 5% or lower (almost no effect)) | 0 (Herbicidal ratio of 5% or lower (almost no effect)) | 0 (Herbicidal ratio of 5% or lower (almost no effect)) | 0 (Herbicidal ratio of 5% or lower (almost no effect)) | 0 (Herbicidal ratio of 5% or lower (almost no effect)) | 0 (Herbicidal ratio of 5% or lower (almost no effect)) | H (Echinochloa crus-galli var. crus-galli) herbicidal effect grade ([2]; Table 24): 0 (Herbicidal ratio of 5% or lower (almost no effect)); D (Leptochloa chinensis) herbicidal effect grade (Leptochloa chinensis; Table 24): 0 (Herbicidal ratio of 5% or lower (almost no effect)); E herbicidal effect grade (Cyperus difformis; Table 24): 0 (Herbicidal ratio of 5% or lower (almost no effect)); c: corn, effect on crop grade (corn [5]): 0 (Herbicidal ratio of 5% or lower (almost no effect)); d: soybean, effect on crop grade (soybean [6]): 0 (Herbicidal ratio of 5% or lower (almost no effect)); b: directly sowed rice plant, effect on crop grade (rice plant): 4 (Herbicidal ratio of 70% or higher and lower than 90%); f: beet, effect on crop grade (beet): 0 (Herbicidal ratio of 5% or lower (almost no effect)) |
| CC(=O)CC1CC(O)=C(c2c(C)cc(-c3ccccn3)cc2C)C1=O (centres unmarked) [7-012] | 0 (Herbicidal ratio of 5% or lower (almost no effect)) | 1 (Herbicidal ratio of 5% or higher and lower than 20%) | 3 (Herbicidal ratio of 40% or higher and lower than 70%) | 0 (Herbicidal ratio of 5% or lower (almost no effect)) | 0 (Herbicidal ratio of 5% or lower (almost no effect)) | 0 (Herbicidal ratio of 5% or lower (almost no effect)) | 0 (Herbicidal ratio of 5% or lower (almost no effect)) | 0 (Herbicidal ratio of 5% or lower (almost no effect)) | 0 (Herbicidal ratio of 5% or lower (almost no effect)) | herbicidal effect on H (Echinochloa crus-galli var. crus-galli), grade 0-5 [2]: 5 (Herbicidal ratio of 90% or more (almost completely withered)); herbicidal effect on D (Leptochloa chinensis), grade 0-5 (Leptochloa chinensis): 5 (Herbicidal ratio of 90% or more (almost completely withered)); herbicidal effect on E, grade 0-5 (Cyperus difformis): 4 (Herbicidal ratio of 70% or higher and lower than 90%); c: corn, effect on crop (criteria of Test Example 1) (corn [5]): 3 (Herbicidal ratio of 40% or higher and lower than 70%); d: soybean, effect on crop (criteria of Test Example 1) (soybean [6]): 2 (Herbicidal ratio of 20% or higher and lower than 40%); b: directly sowed rice plant, effect on crop (criteria of Test Example 1) (rice plant): 5 (Herbicidal ratio of 90% or more (almost completely withered)); f: beet, effect on crop (criteria of Test Example 1) (beet): 0 (Herbicidal ratio of 5% or lower (almost no effect)) |
